From US7504398B2, “Substituted-4-(pyrrolo pyrimidin-6-yl)benzenesulphonamide derivatives” (Laboratorios Almirall S.A., priority 2002, dated 2009)

Experiments:
hA2B receptors = target: T1, hA2B receptors (Homo sapiens, UniProt P29275); assay: Adenosine 2B receptor subtype competition radioligand binding; settings: membranes from hA2B receptors transfected to HEK293 cells, [3H]DPCPX as radioligand, 30 min at 25° C.; read-out: IC50 A2B
T1 construct: purchased Receptor Biology, Inc. (USA); host or cells: HEK293
T1 sequence (P29275 1-332): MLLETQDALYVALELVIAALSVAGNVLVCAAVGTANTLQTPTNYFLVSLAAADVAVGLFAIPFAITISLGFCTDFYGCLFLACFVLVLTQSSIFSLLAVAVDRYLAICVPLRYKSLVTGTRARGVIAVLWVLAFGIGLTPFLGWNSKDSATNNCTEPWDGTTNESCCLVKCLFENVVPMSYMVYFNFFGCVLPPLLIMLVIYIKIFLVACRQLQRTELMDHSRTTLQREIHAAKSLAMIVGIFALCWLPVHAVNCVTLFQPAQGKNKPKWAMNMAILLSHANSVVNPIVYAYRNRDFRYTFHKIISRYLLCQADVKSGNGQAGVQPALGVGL
Description: Adenosine 2B Receptor Subtype Competition Radioligand Binding
Human membranes from recombinant A2B receptors were purchased from Receptor Biology, Inc.(USA).
Competition assays were carried out by incubation of membranes from hA2B receptors transfected to HEK293 cells, [^3H]DPCPX as radioligand, buffer (50 mM Tris-HCl (pH 6.5), 10 mM MgCl2, 1 mM EDTA, 0.1 mM benzamidine, 2 units/ml adenosine deaminase), and unlabelled ligand in a total volume of 0.1 ml for 30 min at 25° C. NECA was used to determinate non-specific binding. Filter over Schleicher&Schuell GF/52 filters (pre-soaked 0.5% polyethylenyimine) in a Brandel cell harvester. Unbound radioligand was removed with 4×2 ml ice-cold 50 mM Tris-Hcl (pH 6.5).

hA2A receptors = target: T2, hA2A receptors (Homo sapiens, UniProt P29274); assay: Adenosine 2A receptor subtype competition radioligand binding; settings: membranes from hA2A receptors transfected to HEK293 cells, [3H]ZM241385 as radioligand, 90 min at 25° C.; read-out: IC50 A2A
T2 construct: purchased Receptor Biology, Inc. (USA); host or cells: HEK293
Description: Adenosine 2A Receptor Subtype Competition Radioligand Binding
Human membranes from recombinant A2A receptors were purchased from Receptor Biology, Inc. (USA).
Competition assays were carried out by incubation of membranes from hA2A receptors transfected to HEK293 cells, [^3H]ZM241385 as radioligand, buffer (50 mM Tris-HCl (pH 7.4), 10 mM MgCl2, 1 mM EDTA, 2 units/ml adenosine deaminase), and unlabelled ligand in a total volume of 0.2 ml for 90 min at 25° C. NECA was used to determinate non-specific binding. Filter over Schleicher&Schuell GF/52 filters (pre-soaked 0.5% polyethylenyimine) in a Brandel cell harvester. Unbound radioligand was removed with 3×3 ml ice-cold 50 mM Tris-Hcl 50 (pH 7.4), 0.9% NaCl.

T2 sequence (P29274 whole entry): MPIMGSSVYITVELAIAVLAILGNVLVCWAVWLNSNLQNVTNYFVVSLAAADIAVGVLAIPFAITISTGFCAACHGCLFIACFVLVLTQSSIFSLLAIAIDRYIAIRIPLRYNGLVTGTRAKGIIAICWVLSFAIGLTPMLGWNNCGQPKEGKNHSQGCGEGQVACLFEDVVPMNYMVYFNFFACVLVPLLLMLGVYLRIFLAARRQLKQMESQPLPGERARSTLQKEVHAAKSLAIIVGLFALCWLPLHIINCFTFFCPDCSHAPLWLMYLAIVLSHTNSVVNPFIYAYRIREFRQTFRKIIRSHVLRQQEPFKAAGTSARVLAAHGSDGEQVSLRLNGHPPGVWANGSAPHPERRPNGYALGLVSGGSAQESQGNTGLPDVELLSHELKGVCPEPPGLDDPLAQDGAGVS

IC50 (hA2B receptors) [nM] | IC50 (hA2A receptors) [nM] | Compound
4 | 85 | Cn1c(=O)c2[nH]c(-c3ccc(S(=O)(=O)N4CCN(Cc5ccc(Cl)s5)CC4)cc3)cc2n(C)c1=O [Example 18, 6-{4-[4-(5-Chlorothiophen-2-ylmethyl)piperazine-1-sulphonyl]phenyl}-1,3-dimethyl-1,5-dihydropyrrolo[3,2-d]pyrimidine-2,4-dione]
18 |  | COc1ccc(NS(=O)(=O)c2ccc(-c3cc4c([nH]3)c(=O)n(C)c(=O)n4C)cc2)cn1 [Example 36, 4-(1,3-Dimethyl-2,4dioxo-2,3,4,5-tetrahydro-1H-pyrrolo[3,2-d]pyrimidin-6-yl)-N-(6-methoxypyridin-3-yl)benzenesulphonamide]
14 |  | Cn1c(=O)c2[nH]c(-c3ccc(S(=O)(=O)NCCc4ccccn4)cc3)cc2n(C)c1=O [Example 37, 4-(1,3-Dimethyl-2,4-dioxo-2,3,4,5-tetrahydro-1H-pyrrolo[3,2-d]pyrimidin-6-yl)-N-(2-pyridin-2-ylethyl)benzenesulphonamide]
12 | 75 | Cn1c(=O)c2[nH]c(-c3ccc(S(=O)(=O)Nc4ccccn4)cc3)cc2n(C)c1=O [Example 38, 4-(1,3-Dimethyl-2,4-dioxo-2,3,4,5-tetrahydro-1H-pyrrolo[3,2-d]pyrimidin-6-yl)-N-pyridin-2-ylbenzenesulphonamide]
 | 28 | CCn1c(=O)c2[nH]c(-c3ccc(S(=O)(=O)N4CCN(Cc5ccc(Cl)s5)CC4)cc3)cc2n(CC)c1=O [Example 59, 6-{4-[4-(5-Chlorothiophen-2-ylmethyl)piparazine-1-sulphonyl]phenyl}-1,3-diethyl-1,5-dihydropyrrolo[3,2-d]pyrimidine-2,4dione]
 | 84 | CCn1c(=O)c2[nH]c(-c3ccc(S(=O)(=O)NC4CCN(Cc5ccc(F)cc5)CC4)cc3)cc2n(CC)c1=O [Example 69, 4-(1,3-Diethyl-2,4-dioxo-2,3,4,5-tetrahydro-1H-pyrrolo[3,2-d]pyrimidin-6-yl)-N-[1-(4-fluorobenzyl)piperidin-4yl]benzenesulphonamide]
 | 60 | CCCn1c(=O)c2[nH]c(-c3ccc(S(=O)(=O)NC4CCN(Cc5ccccc5)CC4)cc3)cc2n(CCC)c1=O [Example 97, N-(1-Benzylperidin-4-yl)-4-(2,4-dioxo-1,3-dipropyl-2,3,4,5-tetrahydro-1H-pyrrolo[3,2-d]pyrimidin-6-yl)benzenesulphonamide]
9 |  | CCCn1c(=O)c2[nH]c(-c3ccc(S(=O)(=O)N4CCN(Cc5ccc(F)cc5)CC4)cc3)cc2n(C)c1=O [Example 107, 6-{4-[4-(4-Fluorobenzyl)piperazine-1-sulphonyl]phenyl}-1-methyl-3-propyl-1,5-dihydropyrrolo[3,2-d]pyrimidine-2,4-dione]
6 |  | CCCn1c(=O)c2[nH]c(-c3ccc(S(=O)(=O)N4CCN(Cc5ccc6c(c5)OCO6)CC4)cc3)cc2n(C)c1=O [Example 118, 6[4-(4-Benzol[1,3]dioxol-5-ylmethylpiperazine-1-sulphonyl)phenyl]-1-methyl-3-propyl-1,5-dihydropyrrolo[3,2-d]pyrimidine-2,4-dione]
12 |  | CCCn1c(=O)c2[nH]c(-c3ccc(S(=O)(=O)N4CCN(c5ccccn5)CC4)cc3)cc2n(C)c1=O [Example 126, 1-Methyl-3-propyl-6-[4-(4-pyridin-2-yipiperazine-1-sulphonyl)phenyl]-1,5-dihydropyrrolo[3,2-d]pyrimidin-2,4-dione]
17 |  | CCCn1c(=O)c2[nH]c(-c3ccc(S(=O)(=O)NCCc4ccccn4)cc3)cc2n(C)c1=O [Example 132, 4-(1-Methyl-2,4-dioxo-3-propyl-2,3,4,5-tetrahydro-1H-pyrrolo[3,2-d]pyrimidin-6-yl)-N-(2-pyridin-2-ylethyl)benzenesulphonamide]
17 |  | Cn1c(=O)c2[nH]c(-c3ccc(S(=O)(=O)NCCOc4ccccn4)cc3)cc2n(C)c1=O [Example 172, 4-(1,3-Dimethyl-2,4-dioxo-2,3,4,5-tetrahydro-1H-pyrrolo[3,2-d]pyrimidin-6-yl)-N-[2-(pyridin-2-yloxy)ethyl]benzenesulfonamide]
5 |  | COc1cccc(OCCNS(=O)(=O)c2ccc(-c3cc4c([nH]3)c(=O)n(C)c(=O)n4C)cc2)n1 [Example 173, 4-(1,3-Dimethyl-2,4-dioxo-2,3,4,5-tetrahydro-1H-pyrrolo[3,2-d]pyrimidin-6-yl)-N-[2-(6-methoxypyridin-2-yloxy)ethyl]benzenesulfonamide]

Compound | IC50 (hA2B receptors) [nM] | IC50 (hA2A receptors) [nM]
Cn1c(=O)c2[nH]c(-c3ccc(S(=O)(=O)N4CCN(Cc5ccccc5)CC4)cc3)cc2n(C)c1=O [Example 1, 6-[4-(4-Benzylpiperazine-1-sulphonyl)phenyl]-1,3-dimethyl-1,5-dihydropyrrolo[3,2-d]pyrimidine-2,4-dione] | 16 | 
Cn1c(=O)c2[nH]c(-c3ccc(S(=O)(=O)N4CCN(Cc5cccc(F)c5)CC4)cc3)cc2n(C)c1=O [Example 3, 6-{4-[4-(3-Fluorobenzyl)piperazine-1-sulphonyl]phenyl}-1,3-dimethyl-1,5-dihydropyrrolo[3,2-d]pyrimidine-2,4-dione] | 7 | 
